Patent US20070049564A1 (Wyeth, priority 2005, published 2007)
Values after ≈ are worked out from the molar mass of the structure shown. Like-named read-outs stand apart in the source and are kept apart here.

Columns and labels:
E. coli GC 2236 = experiment: MIC, broth microdilution; details: Escherichia coli
E. coli GC 2235 = experiment: MIC, broth microdilution; details: Escherichia coli
E. coli GC 2233 = experiment: MIC, broth microdilution; details: Escherichia coli
Method: Antimicrobial susceptibility testing. The in vitro activities of the antibiotics are determined by the broth microdilution method as recommended by the National Committee for Clinical Laboratory Standards (NCCLS) (1). Mueller-Hinton II broth (MHBII)(BBL Cockeysville, Md.) is the medium employed in the testing procedures. Microtiter plates containing serial dilutions of each antimicrobial agent are inoculated with each organism to yield the appropriate density (10^5 CFU/ml) in a 100 μl final volume. The plates are incubated for 18-22 hours at 35° C. in ambient air.
Representative compounds were first incubated in mouse serum for an hour prior to the in vitro testing against a panel of selected gram-positive and gram-negative bacteria strains. All compounds were also pre-incubated in water for an hour prior to testing as control.

E. coli GC 2270 = experiment: MIC, broth microdilution; details: Escherichia coli
E. coli GC 2271 = experiment: MIC, broth microdilution; details: Escherichia coli
E. coli GC 3226 = experiment: MIC, broth microdilution; details: Escherichia coli
E. coli GC 1073 = experiment: MIC, broth microdilution; details: Escherichia coli
S. typhimurium GC 2172 = experiment: MIC, broth microdilution; details: Salmonella enterica, TYPHIMURIUM
S. aureus GC 1079 = experiment: MIC, broth microdilution; details: Staphylococcus aureus
S. aureus GC 6335 = experiment: MIC, broth microdilution; details: Staphylococcus aureus
S. aureus GC 6469 = experiment: MIC, broth microdilution; details: Staphylococcus aureus
E. faecalis GC 4555 = experiment: MIC, broth microdilution; details: Enterococcus faecalis
E. faecalis GC 2265 = experiment: MIC, broth microdilution; details: Enterococcus faecalis
E. faecium GC 4556 = experiment: MIC, broth microdilution; details: Enterococcus faecium
E. faecium GC 2243 = experiment: MIC, broth microdilution; details: Enterococcus faecium
S. pyogenes GC 4563 = experiment: MIC, broth microdilution; details: Streptococcus pyogenes
S. agalactiae GC 4564 = experiment: MIC, broth microdilution; details: Streptococcus agalactiae
c. albicans GC 3066 = experiment: MIC, broth microdilution
E. coli = experiment: Range of MIC for E. coli strains; details: Escherichia coli
Staph. = experiment: Range of MIC for Staph. strains, including MRSA; details: Staphylococcus aureus

## Cc1cc(C)cc(C(=O)OCOC(=O)N(CC(=O)Nc2cc(N(C)C)c3c(c2O)C(=O)C2=C(O)[C@]4(O)C(=O)C(C(N)=O)=C(O)[C@@H](N(C)C)[C@@H]4C[C@@H]2C3)C(C)(C)C)c1 [Example 51]
E. coli GC 2236; GC2236, read-out: MINIMAL INHIBITORY CONCENTRATION MIC, Human Serum
  MIC: 32 µg/mL (≈ 40.4 µM)
E. coli GC 2236; GC2236, read-out: MINIMAL INHIBITORY CONCENTRATION MIC, Mouse Serum
  MIC: 2 µg/mL (≈ 2.53 µM)
E. coli GC 2236; GC2236, read-out: MINIMAL INHIBITORY CONCENTRATION MIC, Water
  MIC: > 64 µg/mL
E. coli GC 2235; GC2235, read-out: MINIMAL INHIBITORY CONCENTRATION MIC, Human Serum
  MIC: 32 µg/mL (≈ 40.4 µM)
E. coli GC 2235; GC2235, read-out: MINIMAL INHIBITORY CONCENTRATION MIC, Mouse Serum
  MIC: 1 µg/mL (≈ 1.26 µM)
E. coli GC 2235; GC2235, read-out: MINIMAL INHIBITORY CONCENTRATION MIC, Water
  MIC: > 64 µg/mL
E. coli GC 2233; GC2233, read-out: MINIMAL INHIBITORY CONCENTRATION MIC, Human Serum
  MIC: 32 µg/mL (≈ 40.4 µM)
E. coli GC 2233; GC2233, read-out: MINIMAL INHIBITORY CONCENTRATION MIC, Mouse Serum
  MIC: 2 µg/mL (≈ 2.53 µM)
E. coli GC 2233; GC2233, read-out: MINIMAL INHIBITORY CONCENTRATION MIC, Water
  MIC: > 64 µg/mL
E. coli GC 2270; GC2270, read-out: MINIMAL INHIBITORY CONCENTRATION MIC, Human Serum
  MIC: 32 µg/mL (≈ 40.4 µM)
E. coli GC 2270; GC2270, read-out: MINIMAL INHIBITORY CONCENTRATION MIC, Mouse Serum
  MIC: 1 µg/mL (≈ 1.26 µM)
E. coli GC 2270; GC2270, read-out: MINIMAL INHIBITORY CONCENTRATION MIC, Water
  MIC: > 64 µg/mL
E. coli GC 2271; GC2271, read-out: MINIMAL INHIBITORY CONCENTRATION MIC, Human Serum
  MIC: 32 µg/mL (≈ 40.4 µM)
E. coli GC 2271; GC2271, read-out: MINIMAL INHIBITORY CONCENTRATION MIC, Mouse Serum
  MIC: 1 µg/mL (≈ 1.26 µM)
E. coli GC 2271; GC2271, read-out: MINIMAL INHIBITORY CONCENTRATION MIC, Water
  MIC: > 64 µg/mL
E. coli GC 3226; GC3226, read-out: MINIMAL INHIBITORY CONCENTRATION MIC, Human Serum
  MIC: 64 µg/mL (≈ 80.8 µM)
E. coli GC 3226; GC3226, read-out: MINIMAL INHIBITORY CONCENTRATION MIC, Mouse Serum
  MIC: 2 µg/mL (≈ 2.53 µM)
E. coli GC 3226; GC3226, read-out: MINIMAL INHIBITORY CONCENTRATION MIC, Water
  MIC: > 64 µg/mL
E. coli GC 1073; GC1073, read-out: MINIMAL INHIBITORY CONCENTRATION MIC, Human Serum
  MIC: 64 µg/mL (≈ 80.8 µM)
E. coli GC 1073; GC1073, read-out: MINIMAL INHIBITORY CONCENTRATION MIC, Mouse Serum
  MIC: 2 µg/mL (≈ 2.53 µM)
E. coli GC 1073; GC1073, read-out: MINIMAL INHIBITORY CONCENTRATION MIC, Water
  MIC: > 64 µg/mL
S. typhimurium GC 2172; read-out: MINIMAL INHIBITORY CONCENTRATION MIC, Human Serum
  MIC: 64 µg/mL (≈ 80.8 µM)
S. typhimurium GC 2172; read-out: MINIMAL INHIBITORY CONCENTRATION MIC, Mouse Serum
  MIC: 8 µg/mL (≈ 10.1 µM)
S. typhimurium GC 2172; read-out: MINIMAL INHIBITORY CONCENTRATION MIC, Water
  MIC: > 64 µg/mL
S. aureus GC 1079; GC1079, read-out: MINIMAL INHIBITORY CONCENTRATION MIC, Human Serum
  MIC: 1 µg/mL (≈ 1.26 µM)
S. aureus GC 1079; GC1079, read-out: MINIMAL INHIBITORY CONCENTRATION MIC, Mouse Serum
  MIC: 0.5 µg/mL (≈ 0.631 µM)
S. aureus GC 1079; GC1079, read-out: MINIMAL INHIBITORY CONCENTRATION MIC, Water
  MIC: 2 µg/mL (≈ 2.53 µM)
S. aureus GC 6335; GC6335, read-out: MINIMAL INHIBITORY CONCENTRATION MIC, Human Serum
  MIC: 0.5 µg/mL (≈ 0.631 µM)
S. aureus GC 6335; GC6335, read-out: MINIMAL INHIBITORY CONCENTRATION MIC, Mouse Serum
  MIC: 0.5 µg/mL (≈ 0.631 µM)
S. aureus GC 6335; GC6335, read-out: MINIMAL INHIBITORY CONCENTRATION MIC, Water
  MIC: 1 µg/mL (≈ 1.26 µM)
S. aureus GC 6469; GC6469, read-out: MINIMAL INHIBITORY CONCENTRATION MIC, Human Serum
  MIC: 1 µg/mL (≈ 1.26 µM)
S. aureus GC 6469; GC6469, read-out: MINIMAL INHIBITORY CONCENTRATION MIC, Mouse Serum
  MIC: 1 µg/mL (≈ 1.26 µM)
S. aureus GC 6469; GC6469, read-out: MINIMAL INHIBITORY CONCENTRATION MIC, Water
  MIC: 2 µg/mL (≈ 2.53 µM)
E. faecalis GC 4555; GC4555, read-out: MINIMAL INHIBITORY CONCENTRATION MIC, Human Serum
  MIC: 8 µg/mL (≈ 10.1 µM)
E. faecalis GC 4555; GC4555, read-out: MINIMAL INHIBITORY CONCENTRATION MIC, Mouse Serum
  MIC: 1 µg/mL (≈ 1.26 µM)
E. faecalis GC 4555; GC4555, read-out: MINIMAL INHIBITORY CONCENTRATION MIC, Water
  MIC: 16 µg/mL (≈ 20.2 µM)
E. faecalis GC 2265; GC2265, read-out: MINIMAL INHIBITORY CONCENTRATION MIC, Human Serum
  MIC: 4 µg/mL (≈ 5.05 µM)
E. faecalis GC 2265; GC2265, read-out: MINIMAL INHIBITORY CONCENTRATION MIC, Mouse Serum
  MIC: 1 µg/mL (≈ 1.26 µM)
E. faecalis GC 2265; GC2265, read-out: MINIMAL INHIBITORY CONCENTRATION MIC, Water
  MIC: 8 µg/mL (≈ 10.1 µM)
E. faecium GC 4556; GC4556, read-out: MINIMAL INHIBITORY CONCENTRATION MIC, Human Serum
  MIC: 8 µg/mL (≈ 10.1 µM)
E. faecium GC 4556; GC4556, read-out: MINIMAL INHIBITORY CONCENTRATION MIC, Mouse Serum
  MIC: 2 µg/mL (≈ 2.53 µM)
E. faecium GC 4556; GC4556, read-out: MINIMAL INHIBITORY CONCENTRATION MIC, Water
  MIC: 8 µg/mL (≈ 10.1 µM)
E. faecium GC 2243; GC2243, read-out: MINIMAL INHIBITORY CONCENTRATION MIC, Human Serum
  MIC: 4 µg/mL (≈ 5.05 µM)
E. faecium GC 2243; GC2243, read-out: MINIMAL INHIBITORY CONCENTRATION MIC, Mouse Serum
  MIC: 1 µg/mL (≈ 1.26 µM)
E. faecium GC 2243; GC2243, read-out: MINIMAL INHIBITORY CONCENTRATION MIC, Water
  MIC: 4 µg/mL (≈ 5.05 µM)
S. pyogenes GC 4563; GC4563, read-out: MINIMAL INHIBITORY CONCENTRATION MIC, Human Serum
  MIC: 2 µg/mL (≈ 2.53 µM)
S. pyogenes GC 4563; GC4563, read-out: MINIMAL INHIBITORY CONCENTRATION MIC, Mouse Serum
  MIC: 0.5 µg/mL (≈ 0.631 µM)
S. pyogenes GC 4563; GC4563, read-out: MINIMAL INHIBITORY CONCENTRATION MIC, Water
  MIC: 2 µg/mL (≈ 2.53 µM)
S. agalactiae GC 4564; GC4564, read-out: MINIMAL INHIBITORY CONCENTRATION MIC, Human Serum
  MIC: 4 µg/mL (≈ 5.05 µM)
S. agalactiae GC 4564; GC4564, read-out: MINIMAL INHIBITORY CONCENTRATION MIC, Mouse Serum
  MIC: 1 µg/mL (≈ 1.26 µM)
S. agalactiae GC 4564; GC4564, read-out: MINIMAL INHIBITORY CONCENTRATION MIC, Water
  MIC: 2 µg/mL (≈ 2.53 µM)
c. albicans GC 3066; Candida albicans, GC3066, read-out: MINIMAL INHIBITORY CONCENTRATION MIC
  MIC: > 64 µg/mL
c. albicans GC 3066; Human Serum
  MINIMAL INHIBITORY CONCENTRATION MIC: >64 UG/ML
c. albicans GC 3066; Mouse Serum
  MINIMAL INHIBITORY CONCENTRATION MIC: >64 UG/ML
E. coli; 20 h, read-out: Range of MIC, E. coli (Mouse Serum)
  MIC: 1 to 2 µg/mL (≈ 1.26 to 2.53 µM)
E. coli; read-out: Minimum inhibitory concentration (MIC), E. coli (Human Serum)
  MIC: 32 to 64 µg/mL (≈ 40.4 to 80.8 µM)
E. coli; read-out: Minimum inhibitory concentration (MIC), E. coli (water)
  MIC: > 64 µg/mL
E. coli; read-out: Range of MIC, E. coli (Water)
  MIC: > 64 µg/mL
Staph.; MRSA, read-out: Range of MIC, Staph (Mouse Serum)
  MIC: 0.25 to 2 µg/mL (≈ 0.316 to 2.53 µM)
Staph.; MRSA, read-out: Range of MIC, Staph (Water)
  MIC: 1 to 4 µg/mL (≈ 1.26 to 5.05 µM)
Staph.; read-out: Minimum inhibitory concentration (MIC), Staph (Human Serum)
  MIC: 0.25 to 2 µg/mL (≈ 0.316 to 2.53 µM)
Staph.; read-out: Minimum inhibitory concentration (MIC), Staph (Water)
  MIC: 1 to 4 µg/mL (≈ 1.26 to 5.05 µM)
